In ChEMBL document CHEMBL3112496, “C1,C2-ether derivatives of the Amaryllidaceae alkaloid lycorine: retention of activity of highly lipophilic analogues against cancer cells” (Bioorg Med Chem Lett, 2014):

How the values were obtained:
A549 = assay: Growth inhibition of human A549 cells by MTT assay; assay type: functional
B16-F10 = assay: Growth inhibition of mouse B16F10 cells by MTT assay; assay type: functional
T98G = assay: Growth inhibition of human T98G cells by MTT assay; assay type: functional
[1] = Growth inhibition of human Hs683 cells by MTT assay; assay type: functional; details: Hs 683
MCF7 = assay: Growth inhibition of human MCF7 cells by MTT assay; assay type: functional
SK-MEL-28 = assay: Growth inhibition of human SK-MEL-28 cells by MTT assay; assay type: functional
[2] = Lipophilicity, log P of the compound; assay type: physicochemical; details: octanol/water

| Compound | GI50 (A549) [µM] | GI50 (B16-F10) [µM] | GI50 (T98G) [µM] | GI50 [1] [µM] | GI50 (MCF7) [µM] | GI50 (SK-MEL-28) [µM] | logP [2] |
| --- | --- | --- | --- | --- | --- | --- | --- |
| C=Cc1cccc2c1N(C)Cc1cc3c(cc1-2)OCO3 | 54 | 34 | 89 | > 100 | 82 | 59 |  |
| C#CCCCO[C@H]1[C@H]2c3cc4c(cc3CN3CCC(=C[C@@H]1O[Si](C(C)C)(C(C)C)C(C)C)[C@H]23)OCO4 | 19 | 7.6 | 21 | 33 | 27 | 28 |  |
| CCO[C@H]1[C@H]2c3cc4c(cc3CN3CCC(=C[C@@H]1OCC)[C@H]23)OCO4 | 4 | 18 | 8.1 | 5.9 | 17 | 35 |  |
| CCCO[C@H]1[C@H]2c3cc4c(cc3CN3CCC(=C[C@@H]1OCCC)[C@H]23)OCO4 | 4.9 | 13 | 24 | 8.1 | 19 | 19 |  |
| C1=C2CCN3Cc4cc5c(cc4[C@H]([C@H](OC/C=C/c4ccccc4)[C@H]1OC/C=C/c1ccccc1)[C@@H]23)OCO5 | 5.5 | 4.2 | 22 | 11 | 4.2 | 8.7 |  |
| O[C@H]1[C@H]2c3cc4c(cc3CN3CCC(=C[C@@H]1OC/C=C/c1ccccc1)[C@H]23)OCO4 | 1.5 | 4.2 | 10 | 8.6 | 3.8 | 14 |  |
| C#CCO[C@H]1[C@H]2c3cc4c(cc3CN3CCC(=C[C@@H]1OCC#C)[C@H]23)OCO4 | 23 | 28 | 68 | 27 | 32 | 52 |  |
| C#CCO[C@H]1C=C2CCN3Cc4cc5c(cc4[C@H]([C@@H]1O)[C@@H]23)OCO5 | 48 | 42 | > 100 | 81 | > 100 | > 100 |  |
| CC(C)=CCO[C@H]1[C@H]2c3cc4c(cc3CN3CCC(=C[C@@H]1OCC=C(C)C)[C@H]23)OCO4 | 4.4 | 5.3 | 24 | 9.7 | 9.5 | 10 |  |
| C1=C2CCN3Cc4cc5c(cc4[C@H]([C@H](OCC4CC4)[C@H]1OCC1CC1)[C@@H]23)OCO5 | 4.2 | 27 | 37 | 23 | 28 | 33 | 1.19 |
| C1=C2CCN3Cc4cc5c(cc4[C@H]([C@H](OCC4CCC4)[C@H]1OCC1CCC1)[C@@H]23)OCO5 | 5.7 | 8 | 18 | 14 | 25 | 22 |  |
| O[C@H]1[C@H]2c3cc4c(cc3CN3CCC(=C[C@@H]1OCC1CCC1)[C@H]23)OCO4 | 27 | 22 | 50 | 50 | 37 | 41 |  |
| CO[C@H]1[C@H]2c3cc4c(cc3CN3CCC(=C[C@@H]1O[Si](C(C)C)(C(C)C)C(C)C)[C@H]23)OCO4 | 19 | 8.9 | 19 | 41 | 28 | 28 |  |
| CO[C@H]1[C@H]2c3cc4c(cc3CN3CCC(=C[C@@H]1O)[C@H]23)OCO4 | 43 | 39 | 64 | > 100 | > 100 | > 100 |  |
| COCCO[C@H]1[C@H]2c3cc4c(cc3CN3CCC(=C[C@@H]1OCCOC)[C@H]23)OCO4 | 29 | 38 | 33 | > 100 | 44 | 68 |  |
| COCCO[C@H]1C=C2CCN3Cc4cc5c(cc4[C@H]([C@@H]1O)[C@@H]23)OCO5 | 26 | 40 | 47 | > 100 | 74 | 91 |  |
| CSCO[C@H]1C=C2CCN3Cc4cc5c(cc4[C@H]([C@@H]1O)[C@@H]23)OCO5 | 60 | 51 | > 100 | 86 | 70 | > 100 |  |
| COCO[C@H]1[C@H]2c3cc4c(cc3CN3CCC(=C[C@@H]1OCOC)[C@H]23)OCO4 | 33 | 31 | 53 | > 100 | 55 | 78 |  |

| Compound | GI50 (A549) [µM] | GI50 (B16-F10) [µM] | GI50 (T98G) [µM] | GI50 [1] [µM] | GI50 (MCF7) [µM] | GI50 (SK-MEL-28) [µM] | logP [2] |
| --- | --- | --- | --- | --- | --- | --- | --- |
| COCO[C@H]1C=C2CCN3Cc4cc5c(cc4[C@H]([C@@H]1O)[C@@H]23)OCO5 | 35 | 55 | 48 | > 100 | 85 | 85 |  |
| C1=C2CCN3Cc4cc5c(cc4[C@H]([C@H](OC[C@@H]4CO4)[C@H]1OC[C@@H]1CO1)[C@@H]23)OCO5 | 39 | 70 | 44 | 44 | 77 | 70 |  |
| O[C@H]1[C@H]2c3cc4c(cc3CN3CCC(=C[C@@H]1OC[C@@H]1CO1)[C@H]23)OCO4 | 54 | 51 | 49 | > 100 | > 100 | > 100 |  |
| C1=C2CCN3Cc4cc5c(cc4[C@H]([C@H](OCc4cccnc4)[C@H]1OCc1cccnc1)[C@@H]23)OCO5 | 72 | 85 | 87 | > 100 | 88 | > 100 |  |
| O[C@H]1[C@H]2c3cc4c(cc3CN3CCC(=C[C@@H]1OCc1cccnc1)[C@H]23)OCO4 | 40 | 66 | 75 | > 100 | 80 | 81 |  |
| C=CCCO[C@H]1C=C2CCN3Cc4cc5c(cc4[C@H]([C@@H]1O)[C@@H]23)OCO5 | 11 | 21 | 39 | 67 | 7.7 | 42 |  |
| C#CCCCO[C@H]1[C@H]2c3cc4c(cc3CN3CCC(=C[C@@H]1OCCCC#C)[C@H]23)OCO4 | 1.3 | 17 | 7.1 | 32 | 22 | 25 |  |
| C#CCCCO[C@H]1C=C2CCN3Cc4cc5c(cc4[C@H]([C@@H]1O)[C@@H]23)OCO5 | 0.6 | 2.6 | 4.2 | 69 | 21 | 19 |  |
| C#CCCCCO[C@H]1[C@H]2c3cc4c(cc3CN3CCC(=C[C@@H]1OCCCCC#C)[C@H]23)OCO4 | 2.8 | 10 | 6.8 | 29 | 16 | 16 |  |
| C#CCCCCO[C@H]1C=C2CCN3Cc4cc5c(cc4[C@H]([C@@H]1O)[C@@H]23)OCO5 | 11 | 34 | 34 | 55 | 32 | 49 |  |
| CC(C)[Si](O[C@H]1[C@H]2c3cc4c(cc3CN3CCC(=C[C@@H]1O)[C@H]23)OCO4)(C(C)C)C(C)C | 15 | 9.5 | 20 | 24 | 23 | 24 |  |
| C#CCCCO[C@H]1C=C2CCN3Cc4cc5c(cc4[C@H]([C@@H]1O[Si](C(C)C)(C(C)C)C(C)C)[C@@H]23)OCO5 | 5.9 | 9 | 16 | 40 | 31 | 32 |  |
| C#CCCCCO[C@H]1C=C2CCN3Cc4cc5c(cc4[C@H]([C@@H]1O[Si](C(C)C)(C(C)C)C(C)C)[C@@H]23)OCO5 | 4.2 | 8.7 | 13 | 23 | 19 | 25 |  |
| C#CCCCCO[C@H]1[C@H]2c3cc4c(cc3CN3CCC(=C[C@@H]1O[Si](C(C)C)(C(C)C)C(C)C)[C@H]23)OCO4 | 21 | 6.4 | 24 | 35 | 28 | 26 |  |
| C=CCO[C@H]1[C@H]2c3cc4c(cc3CN3CCC(=C[C@@H]1O[Si](C(C)C)(C(C)C)C(C)C)[C@H]23)OCO4 | 4.5 | 0.8 | 6.6 | 7.6 | 5 | 2.4 |  |
| C#CCO[C@H]1[C@H]2c3cc4c(cc3CN3CCC(=C[C@@H]1O[Si](C(C)C)(C(C)C)C(C)C)[C@H]23)OCO4 | 3.6 | 6.2 | 4.9 | 27 | 8.3 | 8.2 |  |
| CO[C@H]1C=C2CCN3Cc4cc5c(cc4[C@H]([C@@H]1O)[C@@H]23)OCO5 [HIPPPAMINE] | 31 | 40 | 84 | 36 | > 100 | 92 |  |
| O[C@H]1[C@H]2c3cc4c(cc3CN3CCC(=C[C@@H]1O)[C@H]23)OCO4 [LYCORINE] | 3 | 2.6 | 5.2 | 2.1 | 10.9 | 3.7 | -0.78 |
